Calls of active or inactive are those of the source. Unless noted, the rule behind the calls is not given here.
Columns and labels:
Cytochrome P450 2D6 = Cytochrome P450 2D6 (Homo sapiens, UniProt P10635);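 also: CYP2D6 member of a cytochrome P450 panel assay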
[1] = mammalian cell cytotoxicity, dose response, cytotoxicity control, plate reader, cherry-pick samples (AID 504397); format: functional, cell-based
[2] = molecular target: Intestinal-type alkaline phosphatase (Mus musculus, UniProt P24822); assay: PubChem AID 488874; format: functional
[3] = molecular target: T1, Type-1 angiotensin II receptor (Homo sapiens, UniProt P30556); assay: AT1 receptor antagonists, dose response, selectivity assay for APJ receptor antagonist project, cell-based, uHTS hits (AID 463214); format: functional;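 also: antagonist potency against angiotensin II stimulated AT1 response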
T1 sequence (P30556 whole entry): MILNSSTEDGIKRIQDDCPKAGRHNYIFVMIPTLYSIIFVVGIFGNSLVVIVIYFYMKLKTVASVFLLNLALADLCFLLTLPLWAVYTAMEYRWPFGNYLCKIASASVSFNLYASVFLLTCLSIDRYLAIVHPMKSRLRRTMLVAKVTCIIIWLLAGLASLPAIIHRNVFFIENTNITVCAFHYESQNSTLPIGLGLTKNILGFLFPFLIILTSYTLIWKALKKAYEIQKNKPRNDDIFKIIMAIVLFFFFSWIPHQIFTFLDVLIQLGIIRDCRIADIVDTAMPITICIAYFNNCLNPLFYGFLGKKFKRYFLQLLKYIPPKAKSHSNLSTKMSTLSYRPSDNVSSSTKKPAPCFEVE

[4] = molecular target: Alkaline phosphatase, tissue-nonspecific isozyme (Homo sapiens, UniProt P05186); assay: inhibition of tissue-nonspecific alkaline phosphatase – biochemical, dose response (AID 488882); format: functional
[5] = molecular target: UDP-galactopyranose mutase (Mycobacterium tuberculosis, UniProt P9WIQ1); assay: Inhibitors of Mycobacterium tuberculosis UDP-galactopyranose mutase (UGM) enzyme Measured in Biochemical System Using Plate Reader - 2105-02_Inhibitor_Dose_CherryPick_Activity. [Related pubchem assays (depositor defined):AID504439]
[6] = molecular target: T2, Intestinal-type alkaline phosphatase (Homo sapiens, UniProt P09923); assay: Dose Response confirmation of uHTS hits from a small molecule inhibitors of human intestinal alkaline phosphatase via a luminescent assay. [Related pubchem assays (depositor defined):AID2544, AID2574]; format: functional
[7] = molecular target: T2, Intestinal-type alkaline phosphatase; assay: human IAP inhibitors, dose response, biochemical, luminescent, uHTS hits, set 2 (AID 488793); format: functional
Beta-galactosidase = Beta-galactosidase (Escherichia coli, UniProt Q8VNN2); assay: PubChem AID 485352; format: functional
[8] = molecular target: Lysine-specific demethylase 4C (Homo sapiens, UniProt Q9H3R0); assay: GASC-1 (JMJD2C) histone demethylase inhibitors, dose response, biochemical, DELFIA europium, cherry-picked samples (AID 488835); format: functional
[9] = molecular target: T3, Tyrosine-protein phosphatase non-receptor type 22 (Homo sapiens, UniProt Q9Y2R2); format: functional
T3 sequence (Q9Y2R2 whole entry): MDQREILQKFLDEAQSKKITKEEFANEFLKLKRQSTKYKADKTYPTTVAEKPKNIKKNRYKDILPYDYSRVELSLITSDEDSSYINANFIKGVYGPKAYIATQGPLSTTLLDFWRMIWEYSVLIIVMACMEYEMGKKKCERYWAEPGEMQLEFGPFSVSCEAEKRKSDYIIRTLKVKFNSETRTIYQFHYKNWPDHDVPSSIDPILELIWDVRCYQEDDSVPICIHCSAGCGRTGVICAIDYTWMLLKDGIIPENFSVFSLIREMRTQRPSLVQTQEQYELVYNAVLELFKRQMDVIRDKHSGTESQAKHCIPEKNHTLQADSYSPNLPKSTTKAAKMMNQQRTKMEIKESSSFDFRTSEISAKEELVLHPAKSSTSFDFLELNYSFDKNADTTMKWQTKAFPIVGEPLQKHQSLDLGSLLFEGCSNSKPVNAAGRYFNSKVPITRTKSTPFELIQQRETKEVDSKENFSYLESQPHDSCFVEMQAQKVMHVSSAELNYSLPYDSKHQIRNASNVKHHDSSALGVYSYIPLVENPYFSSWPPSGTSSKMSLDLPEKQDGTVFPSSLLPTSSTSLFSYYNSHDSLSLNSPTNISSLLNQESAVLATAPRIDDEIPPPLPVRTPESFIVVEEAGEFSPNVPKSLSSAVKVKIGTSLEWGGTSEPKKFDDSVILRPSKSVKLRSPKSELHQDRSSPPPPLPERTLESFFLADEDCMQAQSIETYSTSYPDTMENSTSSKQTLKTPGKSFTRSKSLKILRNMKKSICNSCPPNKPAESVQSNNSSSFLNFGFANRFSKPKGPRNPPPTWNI

[10] = molecular target: T3, Tyrosine-protein phosphatase non-receptor type 22; format: functional; remark: listed apart in the source
[11] = molecular target: T4, Tyrosine-protein phosphatase non-receptor type 7 (Homo sapiens, UniProt P35236); format: functional
T4 sequence (P35236 whole entry): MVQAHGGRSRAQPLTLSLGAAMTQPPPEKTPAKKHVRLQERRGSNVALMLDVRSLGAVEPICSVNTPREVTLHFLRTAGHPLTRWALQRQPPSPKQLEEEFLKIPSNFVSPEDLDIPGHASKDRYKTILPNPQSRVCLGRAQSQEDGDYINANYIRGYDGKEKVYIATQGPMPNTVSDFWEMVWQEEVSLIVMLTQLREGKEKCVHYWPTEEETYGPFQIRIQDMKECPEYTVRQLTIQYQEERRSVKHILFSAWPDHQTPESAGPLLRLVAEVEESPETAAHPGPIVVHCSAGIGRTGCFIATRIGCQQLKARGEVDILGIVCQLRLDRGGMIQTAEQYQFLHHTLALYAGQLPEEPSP

[12] = molecular target: ATP-dependent molecular chaperone HSP82 (Candida albicans (strain WO-1) (Yeast), UniProt C4YTQ8); assay: loss of DOC-induced GRE-beta-galactosidase reporter signal, dose response, Hsp90 inhibitor project, S. cerevisiae, luminescence (AID 2400); format: functional, cell-based;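 also: beta-galactosidase luminescence from glucocorticoid response element reporter as proxy for Hsp90 function; inhibitor potency where signal loss means Hsp90 inhibition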
[13] = molecular target: T5, Peroxisome proliferator-activated receptor gamma (Homo sapiens, UniProt P37231); assay: PPARg partial agonists, dose response, cell-based, luminescence, assay provider (AID 504447); format: functional
T5 sequence (P37231 whole entry): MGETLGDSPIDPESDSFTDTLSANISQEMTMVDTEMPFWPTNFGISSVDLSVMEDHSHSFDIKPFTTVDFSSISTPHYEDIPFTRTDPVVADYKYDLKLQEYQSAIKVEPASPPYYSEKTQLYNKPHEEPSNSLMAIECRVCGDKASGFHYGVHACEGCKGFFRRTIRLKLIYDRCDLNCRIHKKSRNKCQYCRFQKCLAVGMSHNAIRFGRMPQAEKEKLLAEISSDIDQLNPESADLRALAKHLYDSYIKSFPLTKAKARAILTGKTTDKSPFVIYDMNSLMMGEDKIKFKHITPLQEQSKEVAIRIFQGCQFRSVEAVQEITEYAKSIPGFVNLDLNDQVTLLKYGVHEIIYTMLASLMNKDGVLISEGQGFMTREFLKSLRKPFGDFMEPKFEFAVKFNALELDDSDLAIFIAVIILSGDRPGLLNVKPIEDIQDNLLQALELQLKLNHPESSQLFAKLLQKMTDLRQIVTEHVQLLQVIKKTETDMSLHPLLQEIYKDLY

[14] = C. albicans growth with fluconazole, confirmation, fluorescence, retest (AID 2467); format: functional, cell-based
[15] = molecular target: T6, Serine/threonine-protein phosphatase (Candida dubliniensis (strain CD36 / CBS 7987 / NCPF 3949 / NRRLY-17841) (Yeast), UniProt B9W6M3); assay: calcineurin pathway inhibitors in yeast reporter, dose response, S. cerevisiae, CDRE-lacZ, luminescence, secondary (AID 2388); format: functional, cell-based;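 also: yeast reporter cells carrying a calcineurin-responsive lacZ construct stimulated with calcium chloride; luminescent beta-galactosidase reporter signal in whole cells rather than isolated phosphatase activity; potency for inhibition where a drop in reporter signal means calcineurin blockade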
T6 sequence (B9W6M3 whole entry): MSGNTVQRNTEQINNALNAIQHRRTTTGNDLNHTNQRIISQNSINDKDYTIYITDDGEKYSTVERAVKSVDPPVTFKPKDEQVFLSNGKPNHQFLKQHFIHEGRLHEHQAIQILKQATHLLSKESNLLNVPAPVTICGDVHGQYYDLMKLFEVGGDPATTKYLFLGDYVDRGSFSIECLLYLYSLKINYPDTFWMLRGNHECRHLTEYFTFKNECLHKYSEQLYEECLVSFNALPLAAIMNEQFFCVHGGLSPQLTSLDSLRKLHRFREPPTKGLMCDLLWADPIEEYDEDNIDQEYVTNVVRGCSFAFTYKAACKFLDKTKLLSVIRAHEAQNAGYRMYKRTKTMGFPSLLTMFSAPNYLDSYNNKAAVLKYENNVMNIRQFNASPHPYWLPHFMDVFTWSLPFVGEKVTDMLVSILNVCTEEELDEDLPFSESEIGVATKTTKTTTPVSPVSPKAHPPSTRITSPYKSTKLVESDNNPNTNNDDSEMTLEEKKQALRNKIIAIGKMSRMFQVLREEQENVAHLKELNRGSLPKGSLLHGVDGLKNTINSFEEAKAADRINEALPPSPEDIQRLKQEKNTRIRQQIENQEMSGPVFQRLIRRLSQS

[16] = molecular target: T5, Peroxisome proliferator-activated receptor gamma; assay: PPARg ligand-binding domain binders, dose response, PPARg partial agonist project, biochemical, TR-FRET, LanthaScreen (AID 504446)
[17] = molecular target: T5, Peroxisome proliferator-activated receptor gamma; assay: PPARg ligand-binding domain binders, dose response, PPARg partial agonist project, biochemical, fluorescence polarization, PolarScreen (AID 504453)
[18] = NIH-3T3 fibroblast cytotoxicity, dose response, cytotoxicity control, cell-based, fluorescence, Alamar Blue, secondary assay (AID 2327); format: functional;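 also: NIH-3T3 mouse fibroblasts cultured with fluconazole at 8 µg/mL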
[19] = molecular target: T7, Delta-type opioid receptor (Homo sapiens, UniProt P41143); assay: SAR Analysis of Antagonists of the DOR Receptor using an Image-Based Assay - Set 2. [Related pubchem assays (depositor defined):AID1777, AID1785, AID1786, AID1966, AID2133, AID2136, AID2284, AID2285, AID2357]; format: functional
Mu-type opioid receptor [20] = molecular target: T8, Mu-type opioid receptor (Homo sapiens, UniProt P35372); assay: SAR Analysis of Agonists of the MOR Receptor using an Image-Based Assay - Set 2. [Related pubchem assays (depositor defined):AID1777, AID1785, AID1786, AID1966, AID2133, AID2136, AID2284, AID2285, AID2352]; format: functional
[21] = molecular target: T7, Delta-type opioid receptor; assay: SAR Analysis of Agonists of the DOR Receptor using an Image-Based Assay - Set 2. [Related pubchem assays (depositor defined):AID1777, AID1785, AID1786, AID1966, AID2133, AID2136, AID2284, AID2285, AID2370]; format: functional
Mu-type opioid receptor [22] = molecular target: T8, Mu-type opioid receptor; assay: SAR Analysis of Antagonists of the MOR Receptor using an Image-Based Assay - Set 2. [Related pubchem assays (depositor defined):AID1777, AID1785, AID1786, AID1966, AID2133, AID2136, AID2284, AID2285, AID2420]; format: functional
[23] = molecular target: T9, Kappa-type opioid receptor (Homo sapiens, UniProt P41145); assay: SAR analysis of small molecule agonists of the kappa opioid receptor via a luminescent beta-arrestin assay - Set 2. [Related pubchem assays (depositor defined):AID1777, AID1785, AID1786, AID1966, AID2133, AID2136, AID2284, AID449737]; format: functional
[24] = molecular target: T9, Kappa-type opioid receptor; assay: SAR analysis of Antagonists of the Kappa Opioid Receptor (KOR) using an Image-Based Assay - Set 2. [Related pubchem assays (depositor defined):AID1777, AID1785, AID1786, AID1966, AID2133, AID2136, AID2284, AID2285, AID2348]; format: functional
[25] = molecular target: T9, Kappa-type opioid receptor; assay: KOR antagonist analogs, beta-arrestin recruitment, SAR follow-up, cell-based, luminescence, set 2 (AID 2495); format: functional
[26] = molecular target: T9, Kappa-type opioid receptor; assay: SAR analysis of Agonists of the Kappa Opioid Receptor (KOR) using an Image-Based Assay - Set 2. [Related pubchem assays (depositor defined):AID1777, AID1786, AID1966, AID2133, AID2136, AID2284, AID2285, AID2359]; format: functional

## O=C(O)C1(C(=O)O)CCN(S(=O)(=O)c2ccccc2)CC1
Cytochrome P450 2D6
  AC50: inconclusive

## COc1ccc(CCN(C)C(=O)c2ccc(S(=O)(=O)Nc3ccccc3C)cc2)cc1OC
[1]
  AC50: > 350 µM (inactive)

## CN(C)c1ccc2nc3c(=O)[nH]c(=O)nc-3n(CC(O)C(O)C(O)CO)c2c1 (stereo not drawn)
[2]
  IC50: 30.8 µM (active)
[3]
  IC50: 29.1 µM (not active)
[4]
  IC50: 33 µM (active)
[5]
  AC50: > 500 µM (inactive)
[6]
  IC50: 14.7 µM (inactive)
[7]
  IC50: 34 µM (active)
Beta-galactosidase
  EC50: > 40 µM (inactive)

## CC(=O)Nc1ccc(CN2CCN(c3cccc(C(F)(F)F)c3)CC2)cc1
[8]
  AC50: 24.8 µM (active)

## COC(=O)C1=NN(C(=O)c2cccc(Cl)c2)C(O)(C(C)(C)C)C1 (stereo not drawn)
[9]
  IC50: > 79.4 µM (inactive)
[10]
  IC50: > 79.4 µM (inactive)
[11]
  IC50: > 79.4 µM (inactive)

## Cc1ccc2nc(N3C(=O)C(O)=C(C(=O)c4ccco4)C3c3ccc(C)o3)sc2c1 (stereo not drawn)
[12]
  EC50: 9.58 µM (active)
[13]
  EC50: 26 µM (active)
[14]
  EC50: 0.071 µM (active)
[15]
  EC50: > 180 µM (inactive)
[16]
  IC50: 14 µM (inactive)
[17]
  IC50: 30 µM (active)
[18]
  EC50: 67.5 µM (active)

## Cc1ccc(S(=O)(=O)NCc2ccc(C(=O)NCCCN(Cc3ccccc3)C(C)C)cc2)cc1
[19]
  IC50: > 32 µM (inactive)
Mu-type opioid receptor [20]
  EC50: > 32 µM (inactive)
[21]
  EC50: > 32 µM (inactive)
Mu-type opioid receptor [22]
  IC50: > 32 µM (inactive)
[23]
  EC50: > 20 µM (inactive)
[24]
  IC50: > 32 µM (inactive)
[25]
  IC50: > 20 µM (inactive)
[26]
  EC50: > 32 µM (inactive)

From ChEMBL document CHEMBL1201862, “PubChem BioAssay data set” (2004)
